The values that follow come from patent publication US10799461B2 (priority 2004, dated 2020).

Molecules are shown by their SMILES.

Data set [1] is described as follows: Reaction at the tail vein injection site in xenograft mice (Example 7). The format is in vivo, athymic nude mice. How it is done:
The experiment was designed as follows. Group 1 (control) received no treatment. Group 2 (control) received free Doxorubicin (5 μg/gm of mouse body weight) intratumorally. This control was included to determine the effect of free Doxorubicin on tumor cells and to assess toxic side-effects. Group 3 (control) was the same as group 2, except that the Doxorubicin was administered intravenously. Group 4 (control) received the anti-O antigen/anti-EGFR BsAb and free Doxorubicin intravenously to show the effect of BsAb in the absence of minicells. […] Groups 7 and 8 received EGFR-targeted ^EGFRMinicellsDOX intravenously and intratumorally, respectively, to determine if receptor-targeted, drug-packaged minicells could effect tumor stabilization. […] Minicells were administered at a dose of 10^8 and all treatments were given on days 17, 24, 27 and 56 post-xenograft establishment. All measurements were performed by an investigator who was blinded to the treatments administered. Statistical analysis was performed by analysis of variance (ANOVA) and P<0.05 was considered to be statistically significant.

In data set [2] the test system is MDA-MB-468 human breast adenocarcinoma cells. The experiment in a line: Colorimetric cytotoxicity (MTS) assay, minicell-mediated drug delivery. The format is cell-based. Particulars: MDA-MB-468 cells, within 6 days after treatment. How it is done: A colorimetric cytotoxicity assay (Promega; CellTiter 96 Aqueous One™) was used. […] MDA-MB 468 cells were seeded at 5×10^6 cells in T75 flasks and incubated for 48 hrs to obtain ˜1×10^7 cells/flask. The media was changed and cells were treated with 10^9 non-targetedminicellsDOX or ^EGFRMinicellsDOX. Free Doxorubicin (50 ng/ml) was also included as a positive control. The cells were incubated for 24 hrs, washed thoroughly with 3 changes of PBS and trypsinized. Viable cells were counted in a haemocytometer using the trypan blue exclusion method. 1×10^4 cells/ml per well were aliqouted into 24-well plates (6 wells per treatment) and incubated for 3, 4, 5, and 6 days with media changes everyday. MTS assay was performed at each time point according to the manufacturers instructions. Briefly, 100 μL of MTS reagent was added to each well and color development was monitored over 2.5 hrs to 4 hrs. 100 μL from each well was transferred to a 96-well plate and the absorbance was read at 490 nm.

Data set [3] concerns human breast cancer xenografts. Description: Human breast cancer xenograft in nude mice, Paclitaxel minicells (Example 8). The class given is in vivo. The following applies: 1×10^8 minicells or 400 μg free Paclitaxel, intravenously or intratumorally, days 15, 21, 26, 29 and 33. (In xenograft studies the graft and the host belong to different species.)
Description: Human breast adenocarcinoma cells (MDA-MB-468, ATCC; human mammary epithelial cells; non-phagocytic) were grown in tissue culture to full confluency in T-75 flasks in RPMI 1640 medium supplemented with 5% Bovine Calf Serum (GIBCO-BRL Life Technologies, Invitrogen Corporation, Carlsbad, Calif., USA) and glutamine (Invitrogen) in a humidified atmosphere of 95% air and 5% CO2 at 37° C. 1×10^6 cells in 50 uL serum-free media together with 50 uL growth factor reduced matrigel (BD Biosciences, Franklin Lakes, N.J., USA) were injected subcutaneously between the shoulder blades of each mouse using a 23-gauge needle. The tumors were measured twice a week using an electronic digital caliper (Mitutoyo, Japan, precision to 0.001) and mean tumor volume was calculated using the formula, length (mm)×width^2 (mm)×0.5=volume (mm^3). 16 days post-implantation, the tumors reached volumes between 50 mm^3 and 80 mm^3, and mice were randomized to seven different groups of 11 per group.
The experiment shown in example 7 was repeated using ^EGFRminicellsPaclitaxel as the experimental treatment. […]
For data set [4] the following is noted: cited from earlier work.

With `COc1cccc2c1C(=O)c1c(O)c3c(c(O)c1C2=O)C[C@@](O)(C(=O)CO)C[C@@H]3O[C@H]1C[C@H](N)[C@H](O)[C@H](C)O1` [free Doxorubicin, Doxorubicin], the “reaction at the site of injection” value in data set [1] is “severe reaction at the site of the injection”. Also, the cell viability entry in data set [2] is “about 30%”.
`CC(=O)O[C@H]1C(=O)[C@@]2(C)[C@H]([C@H](OC(=O)c3ccccc3)[C@]3(O)C[C@H](OC(=O)[C@H](O)[C@@H](NC(=O)c4ccccc4)c4ccccc4)C(C)=C1C3(C)C)[C@]1(OC(C)=O)CO[C@@H]1C[C@@H]2O` [free paclitaxel, Paclitaxel]: the tumor stabilization/regression result in data set [3] is reported as “negligible effect on tumor growth”.
For `CC[C@]1(O)C[C@@H]2CN(CCc3c([nH]c4ccccc34)[C@@](C(=O)OC)(c3cc4c(cc3OC)N(C)[C@H]3[C@@](O)(C(=O)OC)[C@H](OC(C)=O)[C@]5(CC)C=CCN6CC[C@]43[C@@H]65)C2)C1` [Vinblastine], in data set [4], the solubility in water entry is “low solubility in water”.
